Laboratory results from patent publication US9278936B2, “Crystalline forms of 1-(3-tert-butyl-1-p-tolyl-1H-pyrazol-5-yl)-3-(5-fluoro-2-(1-(2-hydroxyethyl)-1H-indazol-5-yloxy)benzyl)urea hydrochloride” (Array BioPharma Inc., priority 2012, dated 2016).

What was measured:
[1] = Aqueous solubility / BCS class; type: physicochemical
[2] = Pharmacokinetics, relative bioavailability and food effect in healthy subjects following single oral doses; type: in vivo, human; details: by 48 hours after dosing
Description: Formulations 1 and 2 as well as the control are summarized below.
This study design encompassed 3 parallel treatment cohorts of unique subjects evaluating the two formulations (12 subjects per cohort) and the PIC control (6 subjects) in a fasted or fed state, as shown in Table 12. A crossover food-effect assessment for the two formulations occurred with Groups 1 and 2 within Periods 1 and 2.
For each period, subjects were divided into 2 groups of equal size to evaluate any potential period effects on the food-effect assessment. Subjects fasted for a minimum of 8 hours the night before and 4 hours following dosing for the fasted assessment. Subjects consumed a slightly modified standard high-fat meal 30 minutes before and fasted for 4 hours after dosing for the fed portion of the food-effect assessment. Following a 7-day washout after the initial dose, subjects being dosed with the novel formulations returned to the clinic for the Period 2 single dose in the fasted state or following the consumption of a high-fat meal, as appropriate. Within each cohort and period, all subjects were treated on the same day. The same subjects were utilized for Cohort 1—Periods 1 and 2, and likewise for Cohort 2—Periods 1 and 2.
Both days were considered single dose for analysis purposes. Pharmacokinetic parameters calculated included the following: […]

[3] = test system: p38 MAPK; details: cited from earlier work
[4] = molecular target: Tie2 protein kinase (Homo sapiens, UniProt Q02763); details: cited from earlier work
Chain of Tie2 protein kinase (Q02763 23-1124): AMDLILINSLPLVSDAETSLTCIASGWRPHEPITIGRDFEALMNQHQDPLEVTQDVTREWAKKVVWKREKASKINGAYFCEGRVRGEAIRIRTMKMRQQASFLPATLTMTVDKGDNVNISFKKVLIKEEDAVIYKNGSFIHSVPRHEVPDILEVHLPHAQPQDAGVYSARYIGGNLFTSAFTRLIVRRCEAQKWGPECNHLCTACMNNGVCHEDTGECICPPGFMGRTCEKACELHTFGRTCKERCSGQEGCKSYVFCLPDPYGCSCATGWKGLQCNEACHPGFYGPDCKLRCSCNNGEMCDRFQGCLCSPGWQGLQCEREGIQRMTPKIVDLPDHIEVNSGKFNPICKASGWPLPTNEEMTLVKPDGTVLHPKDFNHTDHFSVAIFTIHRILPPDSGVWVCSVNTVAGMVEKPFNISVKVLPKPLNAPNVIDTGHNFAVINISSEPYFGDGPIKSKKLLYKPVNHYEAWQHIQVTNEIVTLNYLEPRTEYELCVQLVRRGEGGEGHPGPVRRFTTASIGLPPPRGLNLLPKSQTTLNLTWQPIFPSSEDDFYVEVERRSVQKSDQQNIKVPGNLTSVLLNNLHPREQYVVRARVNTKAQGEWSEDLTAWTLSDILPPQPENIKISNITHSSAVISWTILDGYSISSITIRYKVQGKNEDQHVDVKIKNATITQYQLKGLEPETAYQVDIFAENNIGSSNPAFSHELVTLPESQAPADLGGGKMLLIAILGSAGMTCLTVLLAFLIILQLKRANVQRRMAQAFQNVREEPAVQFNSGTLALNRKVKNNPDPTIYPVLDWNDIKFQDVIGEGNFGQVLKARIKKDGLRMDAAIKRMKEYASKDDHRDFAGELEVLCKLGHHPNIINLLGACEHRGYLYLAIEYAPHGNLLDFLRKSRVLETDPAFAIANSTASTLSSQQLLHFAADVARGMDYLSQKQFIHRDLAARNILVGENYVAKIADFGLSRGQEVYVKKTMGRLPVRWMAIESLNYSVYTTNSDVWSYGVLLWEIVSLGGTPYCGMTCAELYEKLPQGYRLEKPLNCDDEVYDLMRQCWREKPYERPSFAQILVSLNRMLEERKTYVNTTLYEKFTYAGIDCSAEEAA

## Cc1ccc(-n2nc(C(C)(C)C)cc2NC(=O)NCc2cc(F)ccc2Oc2ccc3c(cnn3CCO)c2)cc1 [ARRY-614, 1-(3-Tert-butyl-1-p-tolyl-1H-pyrazol-5-yl)-3-(5-fluoro-2-(1-(2-hydroxyethyl)-1H-indazol-5-yloxy)benzyl)urea]
[1]
  BCS class: Class II
[1]; aqueous media, aqueous buffer, across the typical physiological pH range of 2-8
  solubility: < 10 µg/mL
[2]
  mean plasma concentrations relative to the mean peak plasma concentrations: less than 10%
[3]
  inhibitory activity against p38 MAPK: potent inhibitory activity
[4]
  inhibitory activity against Tie2 protein kinase: potent inhibitory activity
